Source: patent publication US6291676A, “Water-soluble derivatives of camptothecin/homocamptothecin” (priority 2000, dated 2001)

Tests used:
[1] = Fluorescence anisotropy titration: association with electroneutral DMPC vesicles; assay type: physicochemical
Protocol: (§1) Vesicle Preparation. Small unilamellar vesicle (SUV) suspensions were prepared the day of an experiment by the method of Burke et al. (T. G. Burke, A. K. Mishra, M. C. Wani, and M. E. Wall, Lipid Bilayer Partitioning and Stability of Camptothecin Drugs, Biochem., 32(20), 5352 (1993)). Briefly, stock lipid suspensions containing 200 mg/mL lipid in phosphate buffered saline (PBS, pH 7.4) were prepared by Vortex mixing for 5-10 min above the TM of the lipid. The lipid dispersions were then sonicated using a bath-type sonicator (Laboratory Supplies Co., Hicksville, N.Y.) for 3-4 h until they became optically clear. […] Each type of vesicle suspension was annealed for 30 min at 37° C. and then used in an experiment.
(§2) Fluorescence Instrumentation. Steady-state fluorescence measurements were obtained on a SLM Model 9850 spectrofluorometer with a thermostated cuvette compartment. This instrument was interfaced with an IBM PS/2 model 55 SX computer. Excitation and emission spectra were recorded with an excitation resolution of 8 nm and an emission resolution of 4 nm. In all cases spectra were corrected for background fluorescence and scatter from unlabeled lipids or from solvents by subtraction of the spectrum of a blank. Steady-state fluorescence intensity measurements were made in the absence of polarizers. Steady-state anisotropy (a) measurements were determined with the instrument in the "T-format" for simultaneous measurement of two polarized intensities. […] The anisotropy was calculated from a =(IVV -GIVH)/(IVV +2GIVH), where G=IHV /IHH and the subscripts refer to vertical and horizontal orientations of the excitation and emission polarizers, respectively.
(§3) Anisotropy measurements for camptothecins were conducted using exciting light in the range of 370 nm to 400 nm and long pass filters on each emission channel in order to isolate the drug's fluorescence signal from background scatter and/or residual fluorescence. […] The combination of exciting light and emission filters allowed us to adequately separate fluorescence from background signal. […]

[2] = Fluorescence anisotropy titration: association with negatively-charged DMPG vesicles; assay type: physicochemical
Protocol: as §1, §2, §3

[3] = Stability of the lactone form of CT-17 free and in liposomes in PBS, plasma, whole blood; assay type: physicochemical, human
Protocol: To determine the ability of CT-17 to be retained in liposomal preparations,the agent was loaded into liposomes using the active loading methodology as described previously (U.S. Pat. No. 5,192,549). Two types of liposomes were used: 1) non-stealth liposomes and 2) stealth liposomes. The liposome preparations were then incubated in various biological fluids to determine drug retention in the particle. In these experiments the lipid distearoylphosphatidylcholine (DSPC) was obtained from Avanti Polar Lipids (Birmingham, AL) and cholesterol was from Nutritional Biochemicals Corp., Cleveland, Ohio. […] Solvent was evaporated at 55-60° C. on rotary evaporator for 15 min to form the lipid film. The residual solvent was then removed under high vacuum at room temperature overnight. The lipid film was hydrated using 5 ml of 0.1 M ammonium sulfate. MLVs were formed by shaking and occasional vortexing at 55-60° C. LUVs were formed by passing the liposomal suspension through two 100 nm stacked polycarbonate filters under 20 psi pressure of nitrogen using 11 passes at 55-60° C. (Liposo-Fast-Pneumatic from AVESTIN, Toronto, Canada).
FIG. 7 is a graphical comparison of the stability of the lactone form of the camptothecin drug CT-17 as a function of time. […]

## CC[C@@]1(O)C(=O)OCc2c1cc1n(c2=O)Cc2c-1nc1ccccc1c2CNN1CCN(C)CC1 [CT-17, 7-[N-(4-methyl-1-piperazino)aminomethyl]-(20S)-camptothecin]
[1]; PBS buffer, pH 7.4, physiological temperature, DMPC
  Overall association constant KDMPC: 30 M⁻¹
[1]; electroneutral DMPC membranes
  reduction in membrane binding relative to 7AEC (DMPC): greater than 2 fold
[2]; PBS buffer, pH 7.4, physiological temperature, DMPG
  Overall association constant KDMPG: 800 M⁻¹
[2]; negatively-charged DMPG membranes
  reduction in membrane binding relative to 7AEC (negatively-charged membranes): three-fold
[3]
  hydrolysis of free drug to inactive carboxylate: high rate and extensive amount of hydrolysis
